Key:
CRH-R1 mRNA [1] = assay: CRH-R1 isoform expression by nested RT-PCR in treated HaCaT immortalized keratinocytes; assay type: cell-based, human; details: 24 hours, result in words
Method: (§1) In some experiments, SKMEL188, HaCaT and C4-1 cells were also treated with TPA, forskolin or a mixture of IBMX (3-isobutyl-1-methylxanthine) and dbcAMP (N6, 2′-O-dibutyryladenosine 3′:5′-cyclic monophosphate sodium) (all from Sigma). Briefly, the cells were transferred to 75 cm^2 flasks ( 10^6 cells/flask) and cultured for 24 hours in standard culture medium. Then the following compounds were added to the separate cultures: TPA (200 nM), forskolin (10^−5 M), IBMX (5×10^−4 M), and dbcAMP (10^−3 M). Controls were represented by untreated cultures. The cells were incubated for 24 hours, detached, collected by centrifugation, and dissolved in RNA isolation solution (Trizol reagent).
(§2) Total RNA was extracted using a Trizol isolation kit (Gibco-BRL, Gaithersburg, Md.). The synthesis of first-strand cDNA was performed using the Superscript preamplification system (Gibco-BRL). Five μg of total RNA per reaction was reverse transcribed using oligo(dT) as the primer.
(§3) Nested PCR was used to detect different CRH-R1 isoforms. The first round of amplification of the human CRH-R1 fragment spanning exons 2–7 was conducted using 2 μl of cDNA and primers P110: 5′-[…]-3′ (sense) (SEQ ID No. 15) and P111: 5′-[…]-3′ (antisense) (SEQ ID No. 16). An aliquot of the PCR mixture from the first round of amplification was transferred to a new tube, and a second round of PCR was conducted. […]

CRH-R1 mRNA [2] = assay: CRH-R1 isoform expression by nested RT-PCR in treated SKMEL188 melanoma cells; assay type: cell-based; details: human melanoma cells SKMEL188; 24 hours; result in words
Method: as §1, §2, §3

CRH-R1α = target: T1, CRH-R1α (Homo sapiens, UniProt P34998); assay: cAMP accumulation in CRF or urocortin-stimulated COS cells cotransfected with CRH-R1α and isoform e or h; assay type: cell-based; details: coexpression of the isoform with CRH-R1α, FIG. 7C
T1 construct: expressed in transfected cells; host or cells: COS cells, transient transfection with pCRFR1α
T1 sequence (P34998 24-415): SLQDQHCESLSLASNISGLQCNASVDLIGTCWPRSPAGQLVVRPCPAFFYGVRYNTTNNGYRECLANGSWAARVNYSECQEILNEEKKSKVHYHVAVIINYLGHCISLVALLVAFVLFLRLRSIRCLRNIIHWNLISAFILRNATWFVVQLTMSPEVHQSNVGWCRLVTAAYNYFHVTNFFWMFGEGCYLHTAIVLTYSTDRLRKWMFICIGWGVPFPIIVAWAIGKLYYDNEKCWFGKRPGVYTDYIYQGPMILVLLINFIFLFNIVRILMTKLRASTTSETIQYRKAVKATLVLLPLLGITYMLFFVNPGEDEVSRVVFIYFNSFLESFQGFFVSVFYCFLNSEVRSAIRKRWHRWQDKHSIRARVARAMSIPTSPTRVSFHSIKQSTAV
Method: COS cells were propagated in DMEM medium (GIBCO) supplemented with 10% Fetal Bovine serum and antibiotics (GIBCO). Ten thousand cells were routinely transfected in each well of opaque 96-well plate (Packard) by Lipophectamine (Invitrogen, Carlsbad, Calif.) according to the manufacturer's protocol.
Receptor isoforms e and h were tested for their ability to produce soluble forms of the CRH receptor that would affect the activity of the most prevalent CRH-R1α isoform. To allow detection by immunoblotting, a cDNA for the V5 protein was attached to the cDNA for the isoforms in the constructs. The constructs were thus transfected into COS cells and tested as to whether the isoform messages were translatable, and whether cotransfection of CRH-R1α with CRH-R1e or h affects the activity of CRH-R1α.
Cyclic AMP concentration was measured by a cAMP functional assay kit (Packard BioScience, Meriden, Conn.). Stimulated cells were washed 3 times by PBS and incubated for 1 hour in 25 μl of lysis buffer at room temperature. The signal was measured using a Fusion α instrument (Packard BioScience), and cAMP concentrations were recalculated from the standard curve.

For `CCCCCCCCCCCCCC(=O)O[C@@H]1[C@@H](C)[C@@]2(O)[C@@H](C=C(CO)C[C@]3(O)C(=O)C(C)=C[C@@H]23)[C@@H]2C(C)(C)[C@]12OC(C)=O` [TPA, phorbol 12-myristate 13-acetate], the “change of CRH-R1 splicing pattern versus untreated control” value (CRH-R1 mRNA [1]) was “induced insertion of a 110 bp fragment between exons 4 and 5 of CRH-R1” and the “change of CRH-R1 splicing pattern versus untreated control” value (CRH-R1 mRNA [2]) was “shifted the CRH-R1 splicing pattern from the CRH-R1d to the CRH-R1α isoform”.

B1: CRH-R1h: human CRH receptor type 1 isoform with cryptic exon between exons 4 and 5; truncated protein with CRH-binding domain only (protein, listed as Homo sapiens)
chain: MGGHPQLRLVKALLLLGLNPVSASLQDQHCESLSLASNISGLQCNASVDLIGTCWPRSPAGQLVVRPCPAFFYGVRYNTTNNGYRECLANGSWAARVNYSECQEILNEEEPGTQAQPGRAHRGGT
modifications: amino acid sequence of human CRH-R1h gene GenBank Accession No. AF374231
For B1, the “CRH or urocortin-stimulated cAMP accumulation mediated by CRF-R1α” value (CRH-R1α) was “inhibits” and the “CRH or urocortin-stimulated cAMP accumulation mediated by CRF-R1α” value (CRH-R1α; listed as CRF-R1h) was “stimulates”.

Source: patent US7071161B2, “Variants of corticotropin releasing hormone receptor Type 1 and uses thereof” (The University of Tennessee Research Corporation, priority 2001, dated 2006)
